Assay results as given in PMC3182833 (Molecular microbiology, 2011).

Biological target: T1, SoArsAB (Sporomusa ovata, UniProt F6MZ55+F6MZ56)
T1 sequence (F6MZ55 1-350): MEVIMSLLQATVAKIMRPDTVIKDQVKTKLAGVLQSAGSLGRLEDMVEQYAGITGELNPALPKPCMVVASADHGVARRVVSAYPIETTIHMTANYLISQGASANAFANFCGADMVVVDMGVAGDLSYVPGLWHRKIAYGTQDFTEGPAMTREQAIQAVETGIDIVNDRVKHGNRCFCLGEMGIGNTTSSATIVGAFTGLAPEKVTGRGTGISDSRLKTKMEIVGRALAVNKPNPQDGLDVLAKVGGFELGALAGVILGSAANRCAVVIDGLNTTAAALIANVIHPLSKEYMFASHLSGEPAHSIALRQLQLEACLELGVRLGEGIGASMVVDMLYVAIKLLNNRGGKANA
T1 sequence (F6MZ56 1-350): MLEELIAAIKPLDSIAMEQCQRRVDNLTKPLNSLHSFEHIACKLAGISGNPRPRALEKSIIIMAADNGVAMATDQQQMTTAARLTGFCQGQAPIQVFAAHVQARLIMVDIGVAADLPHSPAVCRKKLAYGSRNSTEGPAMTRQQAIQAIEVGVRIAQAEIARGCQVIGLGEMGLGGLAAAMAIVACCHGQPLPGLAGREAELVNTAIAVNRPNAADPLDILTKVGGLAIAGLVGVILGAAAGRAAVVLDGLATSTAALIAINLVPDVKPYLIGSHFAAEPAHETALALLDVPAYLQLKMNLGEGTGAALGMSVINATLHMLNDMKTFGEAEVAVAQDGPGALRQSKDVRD
Assay: product
Format: biochemical
Conditions: NaMN co-substrate; 6 h incubation

Cc1ccc(O)cc1 [P, p-cresol]
product (alpha-p-cresolyl-ribotide) by RP-HPLC and ESI-MS: The product of SoArsAB when phenol, p-cresol, or DMB was used as substrate was purified
